Common to all, as to assay: relative viability (nuclei count vs DMSO), 5 days (fraction); higher = more cells survive
Compound in experiment [1]: C1=CC(=CC=C1C2=CC(=C(S2)NC(=O)N)C(=O)N)F [TPCA-1] + Cc1nc(Nc2ncc(C(=O)Nc3c(C)cccc3Cl)s2)cc(N2CCN(CCO)CC2)n1 [Dasatinib] (partner 0.075 µM)
The essentials: (§1)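 Five library-drug doses in √10 steps were combined with a fixed anchor-drug dose, or a single drug was given alone, by pin tool to lung cancer cell lines in 1536-well plates the day after seeding. Nuclei were stained and counted after 5 days. Relative viability is the nuclei count in treated wells over that in vehicle wells, taken as the median of duplicate plates.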

Compound in experiment [2]: C1=CC(=CC=C1C2=CC(=C(S2)NC(=O)N)C(=O)N)F [TPCA-1] + N=C(N)NC(=N)NCCc1ccccc1 [Phenformin] (partner 250 µM)
The procedure, abridged:
as §1

Compound in experiment [3]: C1=CC(=CC=C1C2=CC(=C(S2)NC(=O)N)C(=O)N)F [TPCA-1] + NC(=O)Nc1cc(-c2cccc(F)c2)sc1C(=O)N[C@H]1CCCNC1 [AZD7762] (partner 0.2 µM)
The essentials: as §1

Compound in experiment [4]: C[C@]12O[C@H](C[C@]1(O)CO)n1c3ccccc3c3c4c(c5c6ccccc6n2c5c31)CNC4=O [Lestaurtinib] + Nc1ncn([C@H]2C[C@H](O)[C@@H](CO)O2)c(=O)n1 [Decitabine] (partner 2 µM)
The essentials: as §1

As to NCI-H647, the relative viability worked out at 0.21 in experiment [1] (first compound 0.04 µM); 0.15 in experiment [1] (first compound 0.1265 µM); 0.231 in experiment [1] (first compound 0.4 µM); 0.0911 in experiment [1] (first compound 1.265 µM); 0.079 in experiment [1] (first compound 4 µM); 0.557 in experiment [2] (first compound 0.04 µM). Moreover, the relative viability amounted to 0.484 in experiment [2] (first compound 0.1265 µM); 0.614 in experiment [2] (first compound 0.4 µM); 0.38 in experiment [2] (first compound 1.265 µM); 0.151 in experiment [2] (first compound 4 µM); 0.618 in experiment [3] (first compound 0.04 µM); 0.447 in experiment [3] (first compound 0.1265 µM). For the same cell line, the relative viability in experiment [3] (first compound 0.4 µM) is 0.629; in experiment [3] (first compound 1.265 µM) it was 0.451; in experiment [3] (first compound 4 µM), 0.327; in experiment [4] (first compound 0.005 µM), 0.415; in experiment [4] (first compound 0.01581 µM), 0.404; in experiment [4] (first compound 0.05 µM), 0.337. The relative viability stood at 0.311 in experiment [4] (first compound 0.1581 µM) and 0.173 in experiment [4] (first compound 0.5 µM).

Take NCI-H650: the relative viability in experiment [1] (first compound 0.04 µM) was determined as 0.464; in experiment [1] (first compound 0.1265 µM), 0.436; in experiment [1] (first compound 0.4 µM), 0.409; in experiment [1] (first compound 1.265 µM), 0.321; in experiment [1] (first compound 4 µM) it was 0.332; in experiment [2] (first compound 0.04 µM) it was 0.493. In addition, the relative viability stood at 0.436 in experiment [2] (first compound 0.1265 µM); 0.466 in experiment [2] (first compound 0.4 µM); 0.311 in experiment [2] (first compound 1.265 µM); 0.293 in experiment [2] (first compound 4 µM); 1.03 in experiment [3] (first compound 0.04 µM); 0.895 in experiment [3] (first compound 0.1265 µM). Besides, the relative viability is 1.1 in experiment [3] (first compound 0.4 µM); 0.541 in experiment [3] (first compound 1.265 µM); 0.906 in experiment [3] (first compound 4 µM); 0.332 in experiment [4] (first compound 0.005 µM); 0.362 in experiment [4] (first compound 0.01581 µM); 0.353 in experiment [4] (first compound 0.05 µM). The relative viability stood at 0.335 in experiment [4] (first compound 0.1581 µM) and 0.326 in experiment [4] (first compound 0.5 µM).

As to NCI-H727, the relative viability in experiment [1] (first compound 0.04 µM) was determined as 0.425; in experiment [1] (first compound 0.1265 µM) it was 0.364; in experiment [1] (first compound 0.4 µM), 0.48; in experiment [1] (first compound 1.265 µM), 0.361; in experiment [1] (first compound 4 µM), 0.37; in experiment [2] (first compound 0.04 µM), 0.673. For the same cell line, the relative viability in experiment [2] (first compound 0.1265 µM) worked out at 0.417; in experiment [2] (first compound 0.4 µM), 0.488; in experiment [2] (first compound 1.265 µM) it was 0.389; in experiment [2] (first compound 4 µM), 0.479; in experiment [3] (first compound 0.04 µM), 0.596; in experiment [3] (first compound 0.1265 µM), 0.68. The relative viability in experiment [3] (first compound 0.4 µM) worked out at 0.497; in experiment [3] (first compound 1.265 µM), 0.701; in experiment [3] (first compound 4 µM), 0.698; in experiment [4] (first compound 0.005 µM) it was 0.957; in experiment [4] (first compound 0.01581 µM), 0.87; in experiment [4] (first compound 0.05 µM), 0.882. For the same cell line, in experiment [4] (first compound 0.5 µM), the relative viability was 0.579.

For the cell line NCI-H838, the relative viability in experiment [1] (first compound 0.04 µM) was 0.378; in experiment [1] (first compound 0.1265 µM), 0.259; in experiment [1] (first compound 0.4 µM), 0.266; in experiment [1] (first compound 1.265 µM), 0.247; in experiment [1] (first compound 4 µM), 0.259; in experiment [2] (first compound 0.04 µM) it was 0.612. Besides, the relative viability in experiment [2] (first compound 0.1265 µM) amounted to 0.516; in experiment [2] (first compound 0.4 µM), 0.672; in experiment [2] (first compound 1.265 µM), 0.367; in experiment [2] (first compound 4 µM), 0.288; in experiment [3] (first compound 0.04 µM), 0.972; in experiment [3] (first compound 0.1265 µM), 0.855. Moreover, the relative viability in experiment [3] (first compound 0.4 µM) amounted to 0.935; in experiment [3] (first compound 1.265 µM), 0.801; in experiment [3] (first compound 4 µM) it was 0.886; in experiment [4] (first compound 0.005 µM), 0.508; in experiment [4] (first compound 0.01581 µM) it was 0.559; in experiment [4] (first compound 0.05 µM) it was 0.501. Also, the relative viability in experiment [4] (first compound 0.1581 µM) came out at 0.399; in experiment [4] (first compound 0.5 µM), 0.161.

The values are drawn from the supplement of paper PMC10307832.
